What was measured:
[1] = tested on: dulcitol accumulation in the diaphragm; assay: galactosemic rats, dulcitol (galactitol) accumulation in diaphragm; type: in vivo, rat (Sprague-Dawley); details: 4 days, vs untreated galactosemic rats
Excerpt: (§1) The aldose reductase inhibiting property of the compounds of this invention and the utilization of the compounds in preventing, diminishing and alleviating diabetic complications are demonstrable in experiments using galactosemic rats, see Dvornik et al., Science, 182, 1146 (1973). Such experiments are exemplified hereinbelow after the listing of the following general comments pertaining to these experiments:
(§2) (a) Four or more groups of six male rats, 50-70 g, Sprague-Dawley strain, were used. The first group, the control group, was fed a mixture of laboratory chow (Rodent Laboratory Chow, Purina) and glucose at 20% (w/w %) concentration. The untreated galactosemic group was fed a similar diet in which galactose is substituted for glucose. The third group was fed a diet prepared by mixing a given amount of the test compound with the galactose containing diet. The concentration of the galactose in the diet of the treated groups was the same as that for the untreated galactosemic group.
(§3) (b) After four days, the animals were killed by euthanization. The lenses were removed from the eyes and weighed. The sciatic nerves were dissected as completely as possible and weighed. Both tissues when frozen can be kept up to two weeks before being analyzed for dulcitol.
(§4) The figures under N and D represent the percentage decrease of dulcitol accumulation in the tissues of the sciatic nerve and diaphragm, respectively, for treated rats as compared to untreated rats.

[2] = tested on: dulcitol accumulation in the sciatic nerve; assay: galactosemic rats, dulcitol (galactitol) accumulation in sciatic nerve; type: in vivo, rat (Sprague-Dawley); details: 4 days, vs untreated galactosemic rats
Excerpt: as §1, §2, §3, §4

aldose reductase = details: 10^-5 M; aldose reductase from bovine lens
Method: (c) The polyol determination was performed by a modification of the procedure of M. Kraml and L. Cosyns, Clin. Biochem., 2,373 (1969). Only two minor reagent changes were made: (a) The rinsing mixture was an aqueous 5% (w/v) trichloroacetic acid solution and (b) the stock solution was prepared by dissolving 25 mg of dulcitol in 100 ml of an aqueous trichloroacetic acid solution. [N.B.: For each experiment the average value found in the tissue from rats fed the glucose diet was subtracted from the individual values found in the corresponding tissue in galactose-fed rats to obtain the amount of polyol accumulated.] […] In the present case the procedure of Hayman and Kinoshita was modified in that the final chromatography step was omitted in the preparation of the enzyme from bovine lens.

SMILES | % Lowering Galacitol Accumulation in Vivo, Diaphragm ([1]; 48.8 mg/kg/day in diet) [%] | % Lowering Galacitol Accumulation in Vivo, Diaphragm ([1]; 96.6 mg/kg/day in diet) [%] | % Lowering Galacitol Accumulation in Vivo, Sciatic Nerve ([2]; 48.8 mg/kg/day in diet) [%] | % Lowering Galacitol Accumulation in Vivo, Sciatic Nerve ([2]; 96.6 mg/kg/day in diet) [%] | % Inhibition in vitro (aldose reductase) [%] | % Lowering Galacitol Accumulation in Vivo, Diaphragm ([1]; 49.3 mg/kg/day in diet) [%] | % Lowering Galacitol Accumulation in Vivo, Diaphragm ([1]; 93.6 mg/kg/day in diet) [%] | % Lowering Galacitol Accumulation in Vivo, Sciatic Nerve ([2]; 49.3 mg/kg/day in diet) [%] | % Lowering Galacitol Accumulation in Vivo, Sciatic Nerve ([2]; 93.6 mg/kg/day in diet) [%]
COC(=O)NC(=O)CC1C(=O)N(Cc2nc3cc(C(F)(F)F)ccc3s2)C(=O)c2ccccc21 (stereo not shown) [H] | 81 | 87 | 61 | 73 | 95 |  |  |  | 
COC(=O)NC(=O)CC1C(=O)N(Cc2nc3cc(C(F)(F)F)ccc3s2)C(=O)c2ccc(F)cc21 (stereo not shown) [F] |  |  |  |  | 83 | 74 | 81 | 39 | 59

From patent US5189044A, “Isoquinoline-1,3-dione acetyl carbamates useful as aldose reductase inhibitors” (American Home Products Corporation, priority 1992, dated 1993)
